These results are taken from US9388147B2 (Receptos, Inc., priority 2009, dated 2016).

Chain of S1P1/EDG1 (P21453 whole entry): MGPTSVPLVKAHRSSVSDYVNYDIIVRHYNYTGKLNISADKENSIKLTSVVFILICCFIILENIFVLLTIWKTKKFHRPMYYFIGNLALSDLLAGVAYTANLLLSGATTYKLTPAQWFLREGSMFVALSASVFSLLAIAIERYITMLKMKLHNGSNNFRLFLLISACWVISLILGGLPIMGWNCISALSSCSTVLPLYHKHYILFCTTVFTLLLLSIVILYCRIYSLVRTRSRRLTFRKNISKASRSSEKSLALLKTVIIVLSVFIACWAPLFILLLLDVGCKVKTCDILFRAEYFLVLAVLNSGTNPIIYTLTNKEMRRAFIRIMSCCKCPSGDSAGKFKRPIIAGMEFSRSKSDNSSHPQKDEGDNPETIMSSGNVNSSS

One experiment addresses S1P1/EDG1 (Homo sapiens, UniProt P21453). The experiment can be described thus: S1P1 CRE-bla CHOK1 reporter assay, inhibition of Forskolin induced cAMP. The class given is cell-based. The conditions noted are these: S1P1 CRE-bla CHOK1, with Forskolin; read-out: S1P1 agonist value (EC50). The procedure, abridged: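 Read-out is a FRET β-lactamase substrate (2 h, room temperature) after 4 h, 37 °C compound treatment under 2 μM Forskolin in stable S1P1-transfected CRE-bla CHO-K1 cells. Ten-point curves; non-linear regression gives EC50 for inhibition of Forskolin-stimulated cAMP.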
For orientation: Reporter assays use an easily measured gene product as a stand-in for the process of interest.
Turning to `CCOc1ccc(-c2nc(-c3cccc4c3CCC4NCCO)no2)cc1OCC` (racemic) [Compound 253, (+/−)-2-((4-(5-(3,4,diethoxyphenyl)-1,2,4-oxadiazol-3-yl)-2,3-dihydro-1H-inden-1-yl)amino)ethanol, reference compound], the EC50 was determined as 2.88 nM.

The same experiment, now with this note: agonist activity range, S1P1 CRE-bla CHOK1, 2 μM Forskolin; read-out: S1P1 ACTIVITY
With `CCOc1ccc(-c2nc(-c3cccc4c3CCC4NCCO)no2)cc1OCC` (racemic) [Compound 253, (+/−)-2-((4-(5-(3,4,diethoxyphenyl)-1,2,4-oxadiazol-3-yl)-2,3-dihydro-1H-inden-1-yl)amino)ethanol, reference compound], the EC50 was 0.5 to 5 nM.

On to `CC(C)Oc1ccc(-c2nc(-c3cccc4c3CC[C@H]4NCC(=O)N3CCCC3)no2)cc1C#N` [Compound 129], for which the EC50 lay in the range of 0.05 to 0.5 nM.

With `CC(C)Oc1ccc(-c2nc(-c3cccc4c3CC[C@H]4N[C@H](C)C(=O)O)no2)cc1C#N` [Compound 63], the EC50 was less than 0.05 nM.

On to `COC(=O)CC1CCN(C(=O)N[C@H]2CCc3c(-c4noc(-c5ccc(OC(C)C)c(C#N)c5)n4)cccc32)CC1` [Compound 226], for which the EC50 is 0.05 to 0.5 nM.

Consider `CC(C)Oc1ccc(-c2nc(-c3cccc4c3CC[C@@H]4NCCCC(=O)O)no2)cc1C#N` [Compound 146], for which the EC50 was less than 0.05 nM.

With `CCOc1ccc(-c2nc(-c3cccc4c3CC[C@H]4O)no2)cc1C(F)(F)F` [Compound 9], the EC50 fell in the range of 0.5 to 5 nM.

In the case of `CC(C)Oc1ccc(-c2nc(-c3cccc4c3CC[C@H]4N(C)CC(=O)N(C)C)no2)cc1C#N` [Compound 115], the EC50 fell in the range of 0.5 to 5 nM.

On to `CC(C)Oc1ccc(-c2nc(-c3cccc4c3CC[C@H]4NC(=O)N3CCC(C(=O)O)CC3)no2)cc1C#N` [Compound 238], for which the EC50 is 0.05 to 0.5 nM.

Take `CC(C)Oc1ccc(-c2nc(-c3cccc4c3CC[C@H]4NCC(=O)N3CC3)no2)cc1C#N` [Compound 127]: the EC50 fell in the range of 0.5 to 5 nM.

Turning to `CC(C)Oc1ccc(-c2nc(-c3cccc4c3CC[C@H]4NCC(=O)N3CCCCC3)no2)cc1C#N` [Compound 130], the EC50 is 0.5 to 5 nM.

As for `CC(C)Oc1ccc(-c2nc(-c3cccc4c3CCC4NCCN3CCCC3)no2)cc1C#N` (racemic) [Compound 26], the EC50 was 0.5 to 5 nM.

Take `CC(C)Oc1ccc(-c2nc(-c3cccc4c3CC[C@H]4NCC(=O)N3CCNCC3)no2)cc1C#N` [Compound 131]: the EC50 was greater than 5 nM.

`CC(C)Oc1ccc(-c2nc(-c3cccc4c3CC[C@@H]4NC(=O)N3CCOCC3)no2)cc1C#N` [Compound 212]: the EC50 was in the range of 0.05 to 0.5 nM.

As for `N#Cc1cc(-c2nc(-c3cccc4c3CCC4NCCO)no2)ccc1OCC(=O)O` (racemic) [Compound 109], the EC50 was greater than 5 nM.

For `CN[C@H]1CCc2c(-c3noc(-c4ccc(OC(C)C)c(C#N)c4)n3)cccc21` [Compound 105], the EC50 was 0.05 to 0.5 nM.

`CC(C)Oc1ccc(-c2nc(-c3cccc4c3CC[C@@H]4NC(=O)OCCO)no2)cc1C#N` [Compound 153]: the EC50 lay within 0.05 to 0.5 nM.

`CC(C)Oc1ccc(-c2nc(-c3cccc4c3CC[C@@H]4N(C)CCO)no2)cc1C#N` [Compound 209]: the EC50 is 0.05 to 0.5 nM.

For the compound `CC(=O)OCCNC1CCc2c(-c3noc(-c4ccc(OC(C)C)c(C#N)c4)n3)cccc21` (racemic) [Compound 37], the EC50 was 0.05 to 0.5 nM.

Consider `COC(=O)C1CN(C2CCc3c(-c4noc(-c5ccc(OC(C)C)c(C#N)c5)n4)cccc32)C1` (racemic) [Compound 36], for which the EC50 is 0.05 to 0.5 nM.

In the case of `CC(C)Oc1ccc(-c2nc(-c3cccc4c3CC[C@H]4N[C@@H](C)CO)no2)cc1C#N` [Compound 54, 5-(3-((R)-1-(((S)-1-hydroxypropan-2-yl)amino)-2,3-dihydro-1H-inden-4-yl)-1,2,4-oxadiazol-5-yl)-2-isopropoxybenzonitrile], the EC50 was in the range of 0.05 to 0.5 nM.

For `CC(C)N[C@H]1CCc2c(-c3noc(-c4ccc(OC(C)C)c(C#N)c4)n3)cccc21` [Compound 87], the EC50 was in the range of 0.5 to 5 nM.

For `CC(C)Oc1ccc(-c2nc(-c3cccc4c3CC[C@H]4NS(=O)(=O)CCN3CCOCC3)no2)cc1C#N` [Compound 176], the EC50 was in the range of 0.5 to 5 nM.

For `CC(C)Oc1ccc(-c2nc(-c3cccc4c3CC[C@H]4NS(=O)(=O)CC(=O)N3CCC3)no2)cc1C#N` [Compound 201], the EC50 is less than 0.05 nM.

For `Cc1c[nH]c(CN[C@H]2CCc3c(-c4noc(-c5ccc(OC(C)C)c(C#N)c5)n4)cccc32)n1` [Compound 159], the EC50 was 0.5 to 5 nM.

Regarding `CC(C)Oc1ccc(-c2nc(-c3cccc4c3CC[C@H]4NC(=O)N3CCC(N(C)C)CC3)no2)cc1C#N` [Compound 246], the EC50 is greater than 5 nM.

`CC(C)Oc1ccc(-c2nc(-c3cccc4c3CCC4N3CCNCC3)no2)cc1C#N` (racemic) [Compound 47]: the EC50 was 0.05 to 0.5 nM.

On to `CC(C)Oc1ccc(-c2nc(-c3cccc4c3CC[C@H]4N(CCO)CCO)no2)cc1C#N` [Compound 118], for which the EC50 lay within 0.05 to 0.5 nM.

On to `CCOc1ccc(-c2nc(-c3cccc4c3CC[C@H]4O)no2)cc1OCC` [Compound 1], for which the EC50 fell in the range of 0.05 to 0.5 nM.

Turning to `CC(C)Oc1ccc(-c2nc(-c3cccc4c3CC[C@@H]4NC(=O)N3CC[C@H](O)C3)no2)cc1C#N` [Compound 233], the EC50 was 0.05 to 0.5 nM.

In a further experiment the target is T1, S1P2 (Homo sapiens, UniProt O95136).
T1 construct: expressed in transfected cells; host or cells: CRE-bla CHOK1
T1 sequence (O95136 whole entry, species assumed): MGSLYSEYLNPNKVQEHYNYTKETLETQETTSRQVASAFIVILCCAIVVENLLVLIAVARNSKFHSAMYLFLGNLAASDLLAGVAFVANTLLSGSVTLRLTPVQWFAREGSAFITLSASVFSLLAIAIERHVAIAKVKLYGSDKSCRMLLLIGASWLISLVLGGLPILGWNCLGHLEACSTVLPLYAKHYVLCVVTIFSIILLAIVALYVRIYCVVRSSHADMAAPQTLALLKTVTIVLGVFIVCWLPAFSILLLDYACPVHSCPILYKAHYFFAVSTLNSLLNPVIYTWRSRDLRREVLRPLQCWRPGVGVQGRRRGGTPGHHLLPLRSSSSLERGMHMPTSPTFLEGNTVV
The experiment in a line: Specificity over other S1P receptors: S1P2 CRE-bla CHOK1 reporter assay. The conditions noted are these: S1P2 CRE-bla CHOK1, without Forskolin; read-out: S1P2 agonist value (EC50). The class given is cell-based. The procedure:
(§1) Cells were seeded into 384-well black wall/clear bottom plates at 10^4 cells/well/19.5 μl assay media (DMEM-phenol free, 0.5% charcoal/dextran stripped serum, 2 mM glutamine, 0.1 mM NEAA, 1 mM Na-Pyruvate, 25 mM Hepes) and incubated for 18 hrs at 37° C. in 5% CO2. Dose response curves (10-point) were generated in 10 mM Hepes, 0.1% Pluronic F127, in the presence of Forskolin. Cells were treated with 0.5 μl compound in the presence of 2 μM Forskolin for 4 hrs at 37° C. The FRET-based β-lactamase fluorescent substrate (LiveBLAzer™-FRET B/G Loading Kit CC4-AM; Invitrogen) was prepared according to manufacturer's directions, and incubated with cells for 2 hrs at room temperature. Plates were read at Ex:410/Em:458 and Ex:410/Em:522, and the response ratio determined. Data was analyzed by non-linear regression to determine the EC50 for inhibition of Forskolin induced cAMP.
(§2) To assess compound specificity on other S1P receptors the following cell lines were used: S1P2 CRE-bla CHOK1, S1P3-Gα15 NFAT-bla HEK293T (Invitrogen), S1P4-bla TANGO U2OS (Invitrogen), S1P5-bla TANGO U2OS (Invitrogen). The same assay set up for S1P1 was used but without Forskolin. S1P4 and S1P5 assays were performed in FreeStyle Expression medium (Invitrogen). S1P5 cells were incubated for 48 hrs in prior to treatment with compound.
With `CCOc1ccc(-c2nc(-c3cccc4c3CCC4NCCO)no2)cc1OCC` (racemic) [Compound 253, (+/−)-2-((4-(5-(3,4,diethoxyphenyl)-1,2,4-oxadiazol-3-yl)-2,3-dihydro-1H-inden-1-yl)amino)ethanol, reference compound], the EC50 was greater than 1000 nM.

The target in the next experiment is T2, S1P3 (Homo sapiens, UniProt Q99500).
T2 construct: host or cells: NFAT-bla HEK293T
T2 sequence (Q99500 whole entry): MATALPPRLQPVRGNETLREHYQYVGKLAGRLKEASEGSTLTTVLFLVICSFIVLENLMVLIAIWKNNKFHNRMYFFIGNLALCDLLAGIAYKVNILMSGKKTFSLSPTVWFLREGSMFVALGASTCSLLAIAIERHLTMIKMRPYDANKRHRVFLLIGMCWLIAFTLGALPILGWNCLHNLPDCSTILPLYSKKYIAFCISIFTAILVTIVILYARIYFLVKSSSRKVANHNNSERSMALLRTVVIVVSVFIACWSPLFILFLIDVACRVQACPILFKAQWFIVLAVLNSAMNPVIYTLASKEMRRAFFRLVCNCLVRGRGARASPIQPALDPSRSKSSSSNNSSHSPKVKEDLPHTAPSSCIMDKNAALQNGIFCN
The experiment in a line: Specificity over other S1P receptors: S1P3-Gα15 NFAT-bla HEK293T reporter assay. The class given is cell-based. The conditions noted are these: without Forskolin, read-out: S1P3 agonist value (EC50). How it is done:
as §1, §2
As for `CCOc1ccc(-c2nc(-c3cccc4c3CCC4NCCO)no2)cc1OCC` (racemic) [Compound 253, (+/−)-2-((4-(5-(3,4,diethoxyphenyl)-1,2,4-oxadiazol-3-yl)-2,3-dihydro-1H-inden-1-yl)amino)ethanol, reference compound], the EC50 came to 4.3 µM.

In another experiment the target is T3, S1P4 (Homo sapiens, UniProt O95977).
T3 construct: Tango fusion (own knowledge: protease cleavage site plus GAL4-VP16 transcription factor at the receptor's C-terminus); host or cells: U2OS (Tango -bla)
T3 sequence (O95977 1-384): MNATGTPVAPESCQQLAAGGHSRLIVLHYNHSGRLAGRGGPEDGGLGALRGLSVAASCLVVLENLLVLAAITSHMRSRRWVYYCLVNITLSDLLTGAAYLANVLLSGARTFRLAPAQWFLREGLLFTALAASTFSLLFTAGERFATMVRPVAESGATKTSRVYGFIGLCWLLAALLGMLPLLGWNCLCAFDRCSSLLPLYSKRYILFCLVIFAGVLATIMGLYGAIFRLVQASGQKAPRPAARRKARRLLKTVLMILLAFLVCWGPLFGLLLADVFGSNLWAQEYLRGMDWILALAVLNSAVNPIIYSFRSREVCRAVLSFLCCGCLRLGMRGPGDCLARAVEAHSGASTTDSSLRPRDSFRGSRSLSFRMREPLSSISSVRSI
The experiment in a line: Specificity over other S1P receptors: S1P4-bla TANGO U2OS assay. Type of experiment: cell-based. The conditions noted are these: read-out: S1P4 agonist value (EC50). How it is done:
as §1, §2
Consider `CCOc1ccc(-c2nc(-c3cccc4c3CCC4NCCO)no2)cc1OCC` (racemic) [Compound 253, (+/−)-2-((4-(5-(3,4,diethoxyphenyl)-1,2,4-oxadiazol-3-yl)-2,3-dihydro-1H-inden-1-yl)amino)ethanol, reference compound], for which the EC50 was found to be 3.25 µM.

In another experiment the target is T4, S1P5 (Homo sapiens, UniProt Q9H228).
T4 construct: Tango fusion (own knowledge: protease cleavage site plus GAL4-VP16 transcription factor at the receptor's C-terminus); host or cells: U2OS (Tango -bla)
T4 sequence (Q9H228 whole entry, the tested form may be a part): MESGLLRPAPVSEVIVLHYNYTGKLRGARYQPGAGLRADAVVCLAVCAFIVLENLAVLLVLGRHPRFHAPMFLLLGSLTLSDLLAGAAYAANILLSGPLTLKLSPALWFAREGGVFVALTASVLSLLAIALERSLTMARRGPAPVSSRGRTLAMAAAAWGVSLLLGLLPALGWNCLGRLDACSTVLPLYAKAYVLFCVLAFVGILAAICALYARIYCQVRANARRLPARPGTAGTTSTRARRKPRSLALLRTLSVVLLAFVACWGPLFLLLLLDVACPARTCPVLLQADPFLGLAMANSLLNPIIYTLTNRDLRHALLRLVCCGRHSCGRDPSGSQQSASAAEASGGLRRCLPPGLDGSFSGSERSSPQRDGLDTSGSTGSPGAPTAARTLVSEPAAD
The experiment can be described thus: Specificity over other S1P receptors: S1P5-bla TANGO U2OS assay. The settings on record: read-out: S1P5 agonist value (EC50). Type of experiment: cell-based. How it is done:
as §1, §2
As to `CCOc1ccc(-c2nc(-c3cccc4c3CCC4NCCO)no2)cc1OCC` (racemic) [Compound 253, (+/−)-2-((4-(5-(3,4,diethoxyphenyl)-1,2,4-oxadiazol-3-yl)-2,3-dihydro-1H-inden-1-yl)amino)ethanol, reference compound], the EC50 stood at 136 nM.
